Measured values taken from patent publication US20220280594A1, “APPLICATION OF POLYPEPTIDE OR DERIVATIVE THEREOF” (CHENGDU HUITAI BIOMEDICINE CO., LTD., priority 2019, published 2022).
Ends that are not written are not given here. PEG = not defined here

Tests used:
Assay type in all cases: cell-based
[1] = test system: human pancreatic cancer cells (PANC-1); assay: scratch assay, migration of PANC-1 cells; conditions: PANC-1, 10 μM, 48 hours; control group 66.65 ± 3.37
Protocol: (§1) In the scratch assay, the cell migration rate was negatively correlated with the inhibitory effect of the drug component on tumor cell migration ability. The cell migration inhibition experiment was described as follows: tumor cells were cultured in vitro, cells in logarithmic growth phase were collected and seeded evenly in a 24-well plate at a density of 1-2×10^5 cells/well; the cells were cultured in a cell incubator until a monolayer was formed; a scratch tool was used to make a “-” (straight) scratch on the monolayer of cells; the cells were washed 1-3 times with PBS, and a medium (with 2% fetal bovine serum) containing specific test components was added to the culture. Experimental grouping: PBS control group; polypeptide or derivative thereof treatment group (N1-N54), 10 μM. Three independent parallel wells were set up in each group, and the cells were cultured continuously in a cell incubator for 48 hours. […] At least 3 representative images for each well were taken. ImageJ software was used to count the migration distance of the cells, and the cell migration rate was calculated as: cell migration rate (%)=(width of original scratch−width of current scratch)/width of original scratch×100.
This example was a scratch assay to evaluate the inhibitory effect of the polypeptide or derivative thereof (N1-N54) on the migration ability of human pancreatic cancer cells (PANC-1). The experimental method was as described in Example 2.

[2] = test system: human liver adenocarcinoma cells (SK-HEP-1); assay: transwell migration assay, SK-HEP-1 cells; conditions: SK-HEP-1 transwell migration, 10 μM, 24 hours; control group 1 782 ± 108, control group 2 768 ± 86
Protocol: The Transwell chamber system was used in the transwell cell migration experiment. The chamber has an upper layer and a lower layer, which are separated by an artificial semipermeable membrane in the middle. Cells that have migrated through the semi-permeable membrane will attach to the lower surface of the semi-permeable membrane. The migration ability is evaluated by counting the number of cells on the lower surface of the semi-permeable membrane. The number of cells that have migrated is negatively correlated with the inhibitory effect of the drug on the migration ability of the tumor cells. Transwell migration assay was performed as follows: tumor cells were cultured in vitro, cells in logarithmic growth phase were collected, and cell suspension was prepared with fresh serum-free medium at a density of 2-3×10^5 cells/mL. Cells were inoculated, 100 μL/well cell suspension (serum-free medium) in the upper chamber and 600 μL/well complete culture medium in the lower chamber. After incubated in 37° C., 5% CO2 incubator for 4-5 hours, serum-free medium (100 μL/well) was added to the control group, and serum-free medium containing polypeptide or derivative thereof (N1-N54) was added to the upper chamber of the treatment group (100 μL/well), the final concentration of the peptide or derivative thereof in the upper chamber was 10 μM. The cells were incubated continuously for 24 hours, and then fixed with methanol and stained with crystal violet. Images were taken under a microscope and the number of migrated cells was counted with ImageJ.
This example was a transwell cell migration experiment to evaluate the inhibitory effect of the polypeptide or derivative thereof (N1-N54) on the migration ability of human liver adenocarcinoma cells (SK-HEP-1). The experimental method was as described in Example 3.

[3] = test system: human liver adenocarcinoma cells (SK-HEP-1); assay: transwell invasion assay, SK-HEP-1 cells; conditions: SK-HEP-1 transwell invasion, 10 μM, 24 hours; control group 767 ± 91
Text: The Transwell chamber system was used in the transwell cell invasion experiment. The chamber has an upper layer and a lower layer, which are separated by an artificial semipermeable membrane in the middle. The upper surface of the semipermeable membrane is coated with a layer of artificial matrigel to simulate extracellular matrix. Cells that have invaded through the matrigel and semi-permeable membrane will attach to the lower surface of the semi-permeable membrane. The invasion ability is evaluated by counting the number of cells on the lower surface of the semi-permeable membrane. The number of cells that have invaded is negatively correlated with the inhibitory effect of the drug on the invasion ability of the tumor cells. Transwell invasion assay was performed as follows: tumor cells were cultured in vitro, cells in logarithmic growth phase were collected, and cell suspension was prepared with fresh serum-free medium at a density of 2-3×10^5 cells/mL. Cells were inoculated, 100 μL/well cell suspension (serum-free medium) in the upper chamber and 600 μL/well complete culture medium in the lower chamber. After incubated in 37° C., 5% CO2 incubator for 4-5 hours, serum-free medium (100 μL/well) was added to the control group, and serum-free medium containing polypeptide or derivative thereof (N1-N54) was added to the upper chamber of the treatment group (100 μL/well), the final concentration of the peptide or derivative thereof in the upper chamber was 10 μM. The cells were incubated continuously for 24 hours, and then fixed with methanol and stained with crystal violet. Images were taken under a microscope and the number of invaded cells was counted with ImageJ.
This example was a transwell cell invasion experiment to evaluate the inhibitory effect of the polypeptide or derivative thereof (N1-N54) on the invasion ability of human liver adenocarcinoma cells (SK-HEP-1). The experimental method was as described in Example 4.

[4] = test system: human breast cancer cells (MDA-MB-231); assay: scratch assay, migration of MDA-MB-231 cells; conditions: MDA-MB-231, 10 μM, 48 hours; control group 36.19 ± 5.15
Protocol: as §1
This example was a scratch assay to evaluate the inhibitory effect of the polypeptide or derivative thereof (N1-N54) on the migration ability of human breast cancer cells (MDA-MB-231). The experimental method was as described in Example 2.

[5] = test system: human melanoma cells (A375); assay: scratch assay, migration of A375 cells; conditions: A375, 10 μM, 48 hours; control group 44.03 ± 6.21
Protocol: as §1
This example was a scratch assay to evaluate the inhibitory effect of the polypeptide or derivative thereof (N1-N54) on the migration ability of human melanoma cells (A375). The experimental method was as described in Example 2.

[6] = test system: human pharyngeal squamous-cell carcinoma cells (Fadu); assay: scratch assay, migration of Fadu cells; conditions: 10 μM, 48 hours, control group 28.76 ± 4.08
Protocol: as §1
This example was a scratch assay to evaluate the inhibitory effect of the polypeptide or derivative thereof (N1-N54) on the migration ability of human pharyngeal squamous-cell carcinoma cells (Fadu). The experimental method was as described in Example 2.

[7] = test system: human colon cancer cells (HCT-116); assay: scratch assay, migration of HCT-116 cells; conditions: HCT-116, 10 μM, 48 hours; control group 47.78 ± 6.07
Protocol: as §1
This example was a scratch assay to evaluate the inhibitory effect of the polypeptide or derivative thereof (N1-N54) on the migration ability of human colon cancer cells (HCT-116). The experimental method was as described in Example 2.

[8] = test system: human prostate cancer cells (22RV1); assay: scratch assay, migration of 22RV1 cells; conditions: 22RV1, 10 μM, 48 hours; control group 25.41 ± 5.01
Protocol: as §1
This example was a scratch assay to evaluate the inhibitory effect of the polypeptide or derivative thereof (N1-N54) on the migration ability of human prostate cancer cells (22RV1). The experimental method was as described in Example 2.

Substance | Migration rate (%) (mean ± SD, P) [1] | Number of cells (mean ± SD, P), migrated cells [2] | Number of cells (mean ± SD, P), invaded cells [3] | Migration rate (%) (mean ± SD, P) [4] | Migration rate (%) (mean ± SD, P) [5] | Migration rate (%) (mean ± SD, P) [6] | Migration rate (%) (mean ± SD, P) [7] | Migration rate (%) (mean ± SD, P) [8]
N10: SEQ ID NO: 1 with deletion of positions 15-18 and 1-3 and PEG modification at the carboxyl terminal (RFLAKENVTQD-{PEG}; reading uncertain) | 32.80 ± 5.89,** % | 54 ± 5,**** | 460 ± 43,** | 13.6 ± 4.62,** % | 6.71 ± 2.07,*** % | 15.93 ± 4.73,* % | 8.70 ± 2.39,*** % | 13.39 ± 2.3,* %
N11: SEQ ID NO: 1 with deletion of positions 15-18 and 1-3 and PEG modification at the amino terminal ({PEG}-RFLAKENVTQD; reading uncertain) | 28.37 ± 7.57,** % | 80 ± 6,**** | 398 ± 36,*** | 10.68 ± 5.72,** % | 11.54 ± 2.23,*** % | 19 ± 5.37,* % | 13.81 ± 2.92,*** % | 9.43 ± 2.23,** %
N12: SEQ ID NO: 1 with deletion of position 18 and positions 1-2 (VRFLAKENVTQDAED) | 23.26 ± 6.90,** % | 405 ± 49,** | 308 ± 42,*** | 15.41 ± 3.55,** % | 12.46 ± 3.75,*** % | 17.72 ± 2.53,** % | 8.14 ± 3.00,*** % | 6.61 ± 2.83,** %
N13: SEQ ID NO: 1 with deletion of positions 15-18 and positions 1-5 (LAKENVTQD) | 18.28 ± 8.38,*** % | 25 ± 12,**** | 258 ± 32,**** | 7.45 ± 2.6,*** % | 16.28 ± 4.19,** % | 9.38 ± 2.46,*** % | 12.19 ± 3.22,*** % | 9.77 ± 3.66,* %
N14: SEQ ID NO: 1 with deletion of positions 1-5 and addition of one amino acid at the carboxyl terminal (LAKENVTQDAEDNC) | 26.63 ± 6.67,*** % | 61 ± 14,**** | 329 ± 54,*** | 14.59 ± 5.36,* % | 6.28 ± 1.12,*** % | 12.90 ± 2.47,** % | 12.24 ± 2.32,*** % | 14.06 ± 2.37,* %
N15: SEQ ID NO: 1 with substitution N18R and addition of one amino acid to the carboxyl terminal (YRVRFLAKENVTQDAEDRC) | 14.85 ± 5.08,*** % | 131 ± 10,**** | 418 ± 36,** | 13.03 ± 5.72,** % | 10.62 ± 2.53,*** % | 12.45 ± 4.28,** % | 10.41 ± 2.99,*** % | 8.36 ± 2.03,** %
N16: SEQ ID NO: 1 with substitution A7R and addition of one amino acid at the carboxyl terminus (YRVRFLRKENVTQDAEDNC) | 19.15 ± 4.97,*** % | 74 ± 18,**** | 398 ± 43,*** | 14.99 ± 6.11,* % | 11.28 ± 3.14,*** % | 5.51 ± 1.32,*** % | 9.39 ± 2.06,*** % | 9.75 ± 2.14,** %
N17: SEQ ID NO: 1 with addition of two amino acids to the carboxyl terminal (YRVRFLAKENVTQDAEDNCT) | 15.47 ± 5.29,*** % | 50 ± 5,**** | 165 ± 28,**** | 12.04 ± 4.13,** % | 14.35 ± 2.52,*** % | 8.78 ± 2.34,*** % | 23.09 ± 2.41,*** % | 4.61 ± 1.64,** %
N18: SEQ ID NO: 1 with addition of one amino acid at the amino terminal and one at the carboxyl terminal (FYRVRFLAKENVTQDAEDNC) | 13.26 ± 7.39,*** % | 96 ± 28,**** | 262 ± 21,**** | 18.64 ± 6.98,* % | 12.67 ± 1.33,*** % | 6.29 ± 2.62,*** % | 16.96 ± 4.87,** % | 6.75 ± 3.22,** %
